Columns and labels:
[1] = Multiple treatment (7 days) and rotarod exercise, blood βHB and glucose; type: in vivo, Sprague-Dawley rats; conditions: exercised SPD rats
Source text: Four month old Sprague-Dawley rats were first acclimated to oral gavage with administration of tap water once daily for a period of 5 days. The rats were then divided into 5 groups, and fed either a standard diet (SD), a ketogenic diet (KD), or a standard diet supplemented with a once daily oral gavage of a ketogenic compound as outlined in Table 1. The ketogenic compound was selected from 1,3-butanediol-acetoacetate diester (SD+KE), β-hydroxybutyrate mineral salt (SD+KS), or β-hydroxybutyrate mineral salt and a medium chain triglyceride (SD+KSMCT). The above ketogenic compounds were provided at a dose of 5 g/kg of body weight.
Each group of animals was maintained on the respective dietary conditions for 7 days. Whole blood samples (10 μL) were collected from the saphenous vein of rats. The levels of blood glucose (mg/dL) and β-hydroxybutyrate (mmol/L) were measured with the commercially available glucose monitoring system PRECISION XTRA® (Abbott Laboratories, Abbott Park, Ill., USA). It is noted that the PRECISION XTRA® only measures β-hydroxybutyrate levels, therefore total blood ketone levels may be higher than measured.
Rats were exercised on a Rota Rod Rotamex 5 (Columbus Instruments). Animals were exercised on the rotarod for 5 consecutive days before treatment began in order to acclimate to the equipment and the task. The rats were placed on rods of the accelerating rotarod and the time the animals remained on the rotarod was measured. The rotarod was set to accelerate to 40 rpm in 180 seconds. Each training and testing consisted of 3 trials, with a 2 minute rest period between each trial. Animals were placed on the rotarod and timed until they fell from the rotating rod. The animals were evaluated on the rotarod exercise test after the 5 days training period but prior to the beginning of dietary treatment (baseline), 24 hours after treatment, and after 7 days of dietary treatment.
The animals were evaluated for blood levels of glucose and ketone bodies β-hydroxybutyrate), prior to the beginning of dietary treatment, 24 hours after treatment, and after 7 days of dietary treatment.

[2] = 10-week feeding of G1D mice, blood ketone and glucose; type: in vivo; conditions: fed for 10 weeks, 10% KE or 20% KS in standard diet, or ketogenic diet
Method: GLUT1 deficiency syndrome (G1D) is characterized by impaired glucose transport in the brain and diagnosed with CSF glucose value of <2.2 mmol/L. There is no cure for G1D, but the ketogenic diet (KD) is often effective for the drug-resistant seizures and impairment of motor function associated with the disease. The effect of ketogenic compounds on blood glucose levels was assessed in glucose transporter type 1 (G1D)-deficient mice. A group of 48 G1D mice, aged 2-5 months old, were fed for 10 weeks with either a standard rodent diet (SD), a ketogenic diet (KD), a standard diet supplemented with 10% ketone ester (SD+KE) or a standard diet supplemented with 20% ketone mineral salt (SD+KS).

[3] = Chronic feeding (83 days) of ketone supplements, blood βHB and glucose; type: in vivo, Sprague-Dawley rats; conditions: SPD rats, after 83 days of chronic feeding (~25 g/kg b.w./day), compared to control
Source text: A total of 48 male SPD rats were fed for 83 days with either standard rodent chow (2018 Teklad Global 18% Protein Rodent Diet (#2018), Harlan) standard diet (SD)/control; n=9) or SD+ketone supplementation. Four treatment animal groups included low-dose KE (˜10 g/kg b.w./day, Low-dose ketone ester (LKE); n=10), high-dose KE (˜25 g/kg b.w./day, high dose ketone ester (HKE); n=10), KS (˜25 g/kg b.w./day, KS; n=9) and KSMCT (˜25 g/kg b.w./day, KSMCT; n=10).
(§1) In the chronic feeding study, blood βHB and glucose levels were measured 24 h before the 1st day of ketone treatments (baseline levels) and at 13th week. In the 7 day oral gavage studies, blood βHB and glucose levels were measured 24 h before the 1st day of ketone treatments (baseline levels; SPD and WAG/Rij rats), 24 h after the first gavage and 60 min after gavage on the 7th day (SPD and WAG/Rij rats). Whole blood samples (10 μL) were taken from the saphenous vein for analysis of blood glucose (mg/dl) and βHB (mmol/1) levels with the commercially available glucose and ketone (βHB) monitoring system Precision Xtra™ (Abbott Laboratories, Abbott Park, Ill., USA).

[4] = Sub-chronic oral gavage (7 days), blood βHB and glucose, without exercise; type: in vivo, Sprague-Dawley rats; conditions: SPD rats, 5 g/kg b.w./day gavage
Source text: (§2) In order to familiarize the animals to the intragastric gavage method, water was gavaged for 5 days before ketone supplementation. Following the adaptation period to the intragastric gavage method, 39 male SPD rats were fed with standard diet, and gavaged daily with 5 g/kg b.w./day water (SD/control; n=11) or ketone supplements KE (n=9), KS (n=9), KSMCT (n=10) sub-chronically for 7 days. In addition, following the adaptation period to the intragastric gavage method, WAG/Rij male rats (n=32) were fed with SD and gavaged sub-chronically with about 2.5 g/kg b.w./day water (SD/control; n=8), KE (n=8), KS (n=8) or KSMCT (n=8) for 7 days.
as §1

[5] = as above; type: in vivo; conditions: WAG/Rij rats; for blood βHB: about 2.5 g/kg b.w./day, after 7 days of gavage, compared to baseline, 24 h and control
Source text: as §2, §1

[6] = 5 g/kg once daily gavage (or ketogenic diet), 24 hours after treatment
[7] = 5 g/kg once daily gavage (or ketogenic diet), after 24 hours, compared to baseline
[8] = 5 g/kg once daily gavage (or ketogenic diet), after 7 days
[9] = 5 g/kg once daily gavage, after 7 days

Na^+/K^+-β-hydroxybutyrate mineral salt [KS]
blood βHB after exercise [1, 6]: no change | blood glucose levels after exercise [1, 7]: increase | blood βHB after exercise [1, 8]: significant increase | blood glucose levels after exercise [1, 9]: decline towards baseline | blood glucose level [2]: early decrease | blood ketone level [2]: significant and rapid elevation | blood βHB levels [3]: significantly elevated | blood βHB ([4]; 7 days, compared to control group): elevated | blood βHB [5]: elevated

CC(=O)CC(=O)OCCC(C)OC(=O)CC(C)=O (centres unmarked) [KE, 1,3-butanediol-acetoacetate diester]
blood βHB after exercise [1, 6]: elevated levels | blood glucose levels after exercise [1, 7]: reduce blood glucose levels | blood βHB after exercise [1, 8]: trend towards baseline levels | blood glucose levels after exercise [1, 9]: trended towards baseline | blood glucose level [2]: quickly dropped and remained the lowest | blood ketone level [2]: slow and slight elevation | blood βHB levels [3]: significantly elevated | blood βHB levels ([4]; 24 h after a single gavage, compared to control): elevated | blood glucose levels ([4]; at 24 h, compared to control): lower | glucose levels ([5]; about 2.5 g/kg b.w./day gavage, after 24 h, compared to baseline and control group): lower | blood βHB [5]: elevated

From patent publication US20190091189A1, “ADMINISTRATION OF EXOGENOUS KETONE TO LOWER BLOOD GLUCOSE” (priority 2016, published 2019)
